Measured values from ChEMBL document CHEMBL5303711, “ECBD screening data for assay EOS300108” (2023).
Active and inactive are the calls of the source. The rule behind the calls is not given here.

Assay: Cytotoxicity activity against human HepG2 cells assessed by CellTiter-Glo luminescent cell viability assay.
Assay type: toxicity, cell-based
Design: assay stage confirmatory assay, source tissue liver
Details: HepG2 cells, read-out: IC50 relative

Row | SMILES | CC50
1 | Cc1ccc(S(=O)(=O)c2cn(C)c3cc(N4CCN(C)CC4)c(F)cc3c2=O)cc1 | 15.1 µM (inactive)
2 | CCn1c(=O)n(CC)c2cc(N3CCCC3)c(NC(=O)c3cccc(OC)c3)cc21 | 20.2 µM (inactive)
3 | Oc1cc(O)c2sc(Nc3ccc(F)cc3)nc2n1 | 5.1 µM (active)
4 | Clc1nss/c1=N\c1ccc(Br)cc1 | 24.2 µM (inactive)
5 | Cc1ccc(/N=c2\ssnc2Cl)nc1 | 16.4 µM (inactive)
6 | CCCCc1c(C)[nH]n(-c2nc3ccccc3[nH]2)c1=O | 8.9 µM (active)
7 | COc1cc(NCCCC(C)N)c2ncccc2c1 (stereo unspecified) | 8.6 µM (active)
8 | CNc1nc2c(=O)[nH]c(N)nc2n1[C@@H]1O[C@H](CO)[C@@H](O)[C@H]1O | 11.4 µM (active)
9 | COc1cc(-c2nnc(SC3=CS(=O)(=O)c4ccccc43)o2)cc(OC)c1OC | 2.5 µM (active)
10 | Cc1ccc(C)c(N2CCN(CCCNC(=O)C3CCN(c4ccc5nnc(C)n5n4)CC3)CC2)c1 | 8.7 µM (active)
11 | COc1ccc(-c2nc(NCCN3CCN(C)CC3)c3ccccc3n2)cc1 | 7.9 µM (active)
12 | CN1CCC2(CC1)CN(S(=O)(=O)c1ccc(Cl)s1)Cc1ccccc1O2 | 9.7 µM (active)
13 | CCOc1ccc(C(=O)Nc2nc3ccc(S(=O)(=O)N(C)C)cc3s2)cc1 | 19.3 µM (inactive)
14 | COc1ccccc1OCCOCCOCCOc1ccccc1OC | 12.6 µM (inactive)
15 | CCS(=O)(=O)c1ncc(Cl)c(C(=O)Nc2ccccc2Cl)n1 | 2.5 µM (active)
16 | O=C(c1ccc(Cl)cc1)N(CCCc1ccccc1)CCS(=O)(=O)N1CCNCC1 | 10.2 µM (active)
17 | CC(C)N1CCN(Cc2nc(Cn3ccn4nc(-c5ccccc5)cc4c3=O)no2)CC1 | 8.2 µM (active)
18 | Cc1[nH]c2c(C)ccc(F)c2c1CCN | 11.7 µM (active)
19 | OCCOCCNCc1ccc(-c2cc(Cl)cc(Cl)c2)o1 | 11.7 µM (active)
20 | CC1(C)C2CC=C(CN(CCN3CCNCC3)C(=O)c3ccccc3Cl)C1C2 (stereo unspecified) | 14.3 µM (inactive)
21 | CCN(CC)S(=O)(=O)c1ccc(C(=O)Nc2cc(C)nn2-c2nc(C)cc(=O)[nH]2)cc1 | 6.5 µM (inactive)
22 | O=C(Nc1cccnc1)c1ccc(Cn2nc(N3CCN(c4ccccc4)CC3)ccc2=O)o1 | 5.7 µM (active)
23 | CC(C)N1CC(CN)C2(CCCCC2)C1 (stereo unspecified) | 11.6 µM (active)
24 | Cc1ccc(N2N=C(C(=O)N3CCCC3)S(=O)(=O)c3cccnc32)cc1 | 3.3 µM (active)

Row | SMILES | CC50
25 | CCN(CC)CCN(C(C)=O)c1nc2cc(C)cc(C)c2s1 | 8.6 µM (active)
26 | CCN(CC)c1cc(C)nc(Nc2ccc(NC(=O)C3CCCO3)cc2)n1 (stereo unspecified) | 11.3 µM (active)
27 | CC(C)COCC(O)CN1CCCN(c2ccc(NC(=O)COc3ccc(Cl)cc3)cn2)CC1 (stereo unspecified) | 5.8 µM (active)
28 | NCC(c1ccc(Cl)cc1)C1CCCC1 (stereo unspecified) | 8 µM (active)
29 | O=c1cc(CSc2ccccc2)nc2sc(-c3ccco3)nn12 | 3.2 µM (active)
30 | Cc1cn2c(=O)c(S(=O)(=O)NCC3CCN(Cc4ccc(Cl)cc4)CC3)c(C)nc2s1 | 11.9 µM (active)
31 | CC(N)Cc1ccc2oc3ccccc3c2c1 (stereo unspecified) | 8 µM (active)
32 | Cc1[nH]c(C(=O)Nc2ccc(C#N)cc2)c(C)c1S(=O)(=O)N1CCCC1 | 17.9 µM (inactive)
33 | COc1cccc(C(=O)/N=c2\sc(C)c(C)n2Cc2ccc(C(=O)NCCN(C)C)o2)c1 | 12.2 µM (active)
34 | CC(C)Oc1ccc(C(=O)Nc2ccc3c(c2)N(S(C)(=O)=O)CCC3)cc1 | 2.7 µM (active)
35 | COc1ccc(-c2cn3nc(N4CCC(C(=O)NCCN(C)C)CC4)sc3n2)cc1 | 3.6 µM (active)
36 | CC(=O)CCS(=O)(=O)c1ccc(Cc2ccc(S(=O)(=O)CCC(C)=O)cc2)cc1 | 9.2 µM (active)
37 | Cc1ccc(N2N=C(C(=O)NCCN3CCOCC3)S(=O)(=O)c3cc(F)ccc32)cc1 | 11.2 µM (active)
38 | Cc1nc(-c2cccc(C(=O)N3CCN(Cc4noc(-c5ccc(F)cc5)n4)CC3)c2)no1 | 5.4 µM (active)
39 | COc1ccc(OC)c([N+]2=C3SCCCN3C(O)(c3ccc(C)cc3)C2)c1 (stereo unspecified) | 11.6 µM (active)
40 | Nc1nc(Nc2ccccc2F)nc2ccccc12 | 8.4 µM (active)
41 | O=S1(=O)C[C@H](NCCc2c[nH]c3ccccc23)[C@@H](S(=O)(=O)c2cccs2)C1 | 11.6 µM (inactive)
42 | CCCCc1cc(=O)oc2c(C)c(OCC(=O)NCCN(C)C)ccc12 | 13 µM (inactive)
43 | Cc1ccc(NC(=O)c2nc(S(C)(=O)=O)ncc2Cl)cc1 | 4.1 µM (active)
44 | Cc1c(O)ccc2c(CN3CCN(c4ccc(F)cc4)CC3)cc(=O)oc12 | 24.8 µM (inactive)
45 | CN(C)CCN(CCCN)Cc1ccco1 | 12.3 µM (active)
46 | CC1=NN(C(=O)c2ccc(N(C)C)cc2)C(O)(C(F)(F)F)C1 (stereo unspecified) | 25 µM (inactive)
47 | CCOc1cccc(OCC)c2c(C)nc(C)c1-2 | 26.6 µM (inactive)
48 | CNS(=O)(=O)c1cc(-c2cc(C(=O)Nc3cccc(OC)c3)n[nH]2)ccc1OC | 9.2 µM (active)

Row | SMILES | CC50
49 | CCN1CCN(c2ncc(C(=O)Nc3ccc(Br)cc3)c(C)n2)CC1 | 13.8 µM (inactive)
50 | Cc1ccc(C)c(N2CCN(CCCNC(=O)CC3Oc4ccccc4NC3=O)CC2)c1 (stereo unspecified) | 15.7 µM (active)
51 | CCn1cc(CN2C[C@@H]3C[C@H](NC(C)=O)CN3C(=O)[C@@H]2CC(C)C)c2ccccc21 | 13.6 µM (inactive)
52 | CC1CCN(S(=O)(=O)c2ccc(-c3nc(C#N)c(NCCCN(C)C)o3)cc2)CC1 | 5.8 µM (active)
53 | O=C(Nc1nnc2ccccn12)c1ccc(F)c(Cl)c1 | 2.7 µM (active)
54 | CC(=O)N1CCCSc2ccc(S(=O)(=O)NCCCc3ccccc3)cc21 | 12.2 µM (active)
55 | CC(=O)C1=C(c2ccc(Br)cc2)N(C(C)=O)n2c(C)nnc2S1 | 10.9 µM (active)
56 | COc1ccccc1-c1nnc(-c2ccccc2O)o1 | 5.3 µM (active)
57 | CCOCC(=O)N1CCN(c2nc3c(s2)c(C)nn3-c2ccc(OC)cc2)CC1 | 11.5 µM (active)
58 | CC(C(=O)NCCN(C)C)C1CCN(C(=O)c2cc3cc(Cl)ccc3[nH]2)CC1 (stereo unspecified) | 6.3 µM (active)
59 | Cc1noc2ncnc(N3CCC(C(=O)N4CCc5ccccc54)CC3)c12 | 10.9 µM (active)
60 | COc1cccc(S(=O)(=O)N2CCC3(CC2)CC(CCOc2ccncc2)CCO3)c1 (stereo unspecified) | 13.2 µM (active)
61 | COc1ccc(NS(=O)(=O)c2ccc(-c3cnc(C)o3)cc2)cc1OC | 3.6 µM (active)
62 | CCCCOc1ccc(-c2cc3c4nnc(CCC(=O)N5CCN(CC)CC5)n4ccn3n2)cc1 | 4.2 µM (active)
63 | O=C(CCCCCn1sc2ccccc2c1=O)Nc1ccc2c(c1)OCO2 | 3.5 µM (active)
64 | COc1ccc(NC(=O)C2=C(c3ccccc3)S(=O)(=O)CCO2)c(OC)c1 | 9.7 µM (active)
65 | COc1ccc(C(=O)N[C@@H]2CN(Cc3ccccc3)C[C@H]2CN(C)C)cc1F | 12.1 µM (active)
66 | CCCS(=O)(=O)Nc1ccc(Nc2nc(C)cc(N(CC)CC)n2)cc1 | 6.4 µM (active)
67 | CCN1CCN(C(=O)C2CCN(c3nn4cc(-c5ccc(C)cc5)nc4s3)CC2)CC1 | 9.5 µM (active)
68 | Cc1nc2n(c(=O)c1C)CN(CCCO)CN2c1ccc(Cl)cc1Cl | 50 µM (inactive)
69 | Clc1ccc(OCC2CCCNC2)c2ccccc12 (stereo unspecified) | 2 µM (active)
70 | COc1ccc(-c2ccc(CNCCCN3CCOCC3)o2)cc1Cl | 12.7 µM (inactive)
71 | COc1cc(/N=c2\ssnc2Cl)cc(OC)c1OC | 8.1 µM (active)
